Reference: PubChem BioAssay (NCI)
Where “and” joins values, the source holds several entries; their conditions need not be identical. Identical values can stand only once.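 Grown in 96-well plates, cells were treated for 48 hours with each compound at five concentrations. Insufficient inhibition: endpoint recorded as highest concentration tested. GI50 = concentration required for 50% inhibition of growth. TGI marks complete inhibition of growth.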

How the values were obtained:
Assay in all cases: NCI tumour cell line growth inhibition, 48 h
P388/ADR leukemia = test system: P388/ADR leukemia
KM20L2 colon = test system: KM20L2 colon
DMS 273 small cell lung = test system: DMS 273 small cell lung
P388 leukemia = test system: P388 leukemia
LXFL 529 NSCLC = test system: LXFL 529 NSCLC
T-47D breast = test system: T-47D breast
MDA-N = test system: MDA-N
MDA-MB-435 = test system: MDA-MB-435
RXF-631 renal = test system: RXF-631 renal
SNB-78 CNS = test system: SNB-78 CNS
HOP-18 NSCLC = test system: HOP-18 NSCLC

Q: `C/C=C1\C[C@@H]2C(OC)Nc3cc(O)c(OC)cc3C(=O)N2C1` (stereo partly specified) was tested. Which TGI (P388/ADR leukemia) did it give?
A: 0.0104 µM

Q: And the TGI (KM20L2 colon)?
A: 0.0909 µM and 0.045 µM

Q: What about the TGI (DMS 273 small cell lung) of the same compound?
A: 0.0917 µM and < 0.0143 µM

Q: What about the TGI (P388 leukemia) of the same compound?
A: < 0.0123 µM

Q: What about the TGI (LXFL 529 NSCLC) of the same compound?
A: 0.209 µM

Q: And the TGI (T-47D breast)?
A: 0.0783 µM and < 0.0265 µM

Q: And the GI50 (MDA-N)?
A: 0.014 µM

Q: And the TGI (MDA-N)?
A: 0.0319 µM and < 0.0163 µM

Q: And the GI50 (MDA-MB-435)?
A: 0.00819 µM

Q: What about the TGI (MDA-MB-435) of the same compound?
A: 0.0623 µM and < 0.0106 µM

Q: Which results are given for `O=[N+]([O-])c1cc([N+](=O)[O-])c(C(Cl)C(Cl)c2ccccc2)cc1C(Cl)C(Cl)c1ccccc1` (stereo unspecified)?
A: TGI (KM20L2 colon): 4.22 µM; TGI (DMS 273 small cell lung): 4.08 µM; TGI (LXFL 529 NSCLC): 2.87 µM; TGI (RXF-631 renal): > 21.1 µM; TGI (SNB-78 CNS): 9.72 µM; TGI (HOP-18 NSCLC): 3.53 µM

Q: Which TGI (KM20L2 colon) does the source give for `NC(=O)OCC(COc1ccc(Cl)cc1)OC(=O)c1cc([N+](=O)[O-])cc([N+](=O)[O-])c1` (stereo unspecified) here?
A: > 100 µM

Q: And the TGI (DMS 273 small cell lung)?
A: > 100 µM

Q: What about the TGI (LXFL 529 NSCLC) of the same compound?
A: > 100 µM

Q: And the TGI (RXF-631 renal)?
A: > 100 µM

Q: And the TGI (SNB-78 CNS)?
A: > 100 µM

Q: What about the TGI (HOP-18 NSCLC) of the same compound?
A: > 100 µM

Q: With `O=c1[nH]c(=O)n(C2OC(CO)C(O)C2O)cc1OCc1ccccc1` (stereo unspecified) as the compound, how does the TGI (KM20L2 colon) read?
A: > 100 µM

Q: What about the TGI (DMS 273 small cell lung) of the same compound?
A: > 100 µM

Q: And the TGI (LXFL 529 NSCLC)?
A: > 100 µM

Q: What about the TGI (RXF-631 renal) of the same compound?
A: > 100 µM

Q: And the TGI (SNB-78 CNS)?
A: > 100 µM

Q: What about the TGI (HOP-18 NSCLC) of the same compound?
A: > 100 µM

Q: What does the source list for `CCCCCCCCCCNC(=S)OCCCC`?
A: TGI (KM20L2 colon): 37.7 µM; TGI (DMS 273 small cell lung): 42.3 µM; TGI (LXFL 529 NSCLC): 55.6 µM; TGI (RXF-631 renal): 87.1 µM; TGI (SNB-78 CNS): 88.4 µM; TGI (HOP-18 NSCLC): 81.5 µM

Q: With `O=C(CC(=O)c1cccc([N+](=O)[O-])c1)C(=O)Nc1nc([N+](=O)[O-])cs1` as the compound, how does the TGI (KM20L2 colon) read?
A: > 100 µM

Q: What about the TGI (DMS 273 small cell lung) of the same compound?
A: > 100 µM

Q: What about the TGI (LXFL 529 NSCLC) of the same compound?
A: > 100 µM

Q: What about the TGI (RXF-631 renal) of the same compound?
A: > 100 µM

Q: And the TGI (SNB-78 CNS)?
A: > 100 µM

Q: And the TGI (HOP-18 NSCLC)?
A: > 100 µM

Q: With `N#CC(C#N)=Cc1ccc(Oc2ccccc2)cc1` as the compound, how does the TGI (KM20L2 colon) read?
A: > 100 µM

Q: What about the TGI (DMS 273 small cell lung) of the same compound?
A: 37 µM

Q: What about the TGI (LXFL 529 NSCLC) of the same compound?
A: 56.7 µM

Q: What about the TGI (RXF-631 renal) of the same compound?
A: > 100 µM

Q: And the TGI (SNB-78 CNS)?
A: > 90.8 µM

Q: And the TGI (HOP-18 NSCLC)?
A: 89.8 µM
